In patent US11331327B2, “Antibacterial use of halogenated salicylanilides” (UNION therapeutics A/S, priority 2014, dated 2022):
≈ marks a conversion by molar mass, not a printed value. Like-named read-outs stand apart in the source and are kept apart here.

Test system: S. aureus clinical isolates and S. aureus ATCC 29213
Experiment: MIC assay according to CLSI criteria, Example 2, S. aureus strains
Format: cell-based, Staphylococcus aureus
Details: Staphylococcus aureus, read-out: MIC
Protocol: Strains were conserved in Luria Bertani (LB) Broth (S. aureus) or Brain Heart Infusion (BHI) (S. pyogenes) supplemented with glycerol 15% (v/v) at −80° C., and reactivated by isolation on LB (S. aureus) or BHI (S. pyogenes) agar plates. Strains were cultivated in Mueller Hinton (MH) Broth-cation adjusted (S. aureus) or BHI (S. pyogenes). All strains were cultivated aerobically (microaerobically for S. pyogenes strains) at 37° C.
Bacterial cultures were stopped in their exponential growth phase and plates were inoculated with the approximate concentration of 5×10^5 cells per well. Plates were incubated at 37° C. for 18 hours (S. aureus) or 24 hours (S. pyogenes).

## CC(=O)O[C@H]1C[C@@]2(C)[C@@H](C[C@@H](O)[C@H]3[C@@]4(C)CC[C@@H](O)[C@@H](C)[C@@H]4CC[C@@]32C)/C1=C(\CCC=C(C)C)C(=O)O [Fusidic acid]
ATCC 29213 / MRSA, strain MRSA 15
  MIC: > 16 µg/mL
ATCC 29213 / MRSA, strain MRSA 16
  MIC: 0.25 µg/mL (≈ 0.484 µM)
ATCC 29213 / MRSA, strain MRSA 17
  MIC: 4 µg/mL (≈ 7.74 µM)
ATCC 29213 / MRSA, strain MRSA 18
  MIC: 0.25 µg/mL (≈ 0.484 µM)
ATCC 29213 / MRSA, strain MRSA 19
  MIC: 0.125 µg/mL (≈ 0.242 µM)
ATCC 29213 / MRSA, strain MRSA 20
  MIC: 0.125 µg/mL (≈ 0.242 µM)
ATCC 29213 / MRSA, strain MRSA 21
  MIC: 0.125 µg/mL (≈ 0.242 µM)
ATCC 29213 / MRSA, strain MRSA 22
  MIC: > 16 µg/mL
ATCC 29213 / MRSA, strain MRSA 23
  MIC: 0.25 µg/mL (≈ 0.484 µM)
ATCC 29213 / MRSA, strain MRSA 24
  MIC: 0.25 µg/mL (≈ 0.484 µM)
ATCC 29213 / MRSA, strain MRSA 25
  MIC: 16 µg/mL (≈ 31 µM)
ATCC 29213 / MRSA, strain MRSA 26
  MIC: 0.5 µg/mL (≈ 0.968 µM)
ATCC 29213 / MRSA, strain MRSA 27
  MIC: 0.25 µg/mL (≈ 0.484 µM)
ATCC 29213 / MRSA, strain MRSA 27b
  MIC: 8 µg/mL (≈ 15.5 µM)
ATCC 29213 / MRSA, strain MRSA 28
  MIC: 0.06 µg/mL (≈ 0.116 µM)
ATCC 29213 / MRSA, strain MRSA 29
  MIC: 4 µg/mL (≈ 7.74 µM)
ATCC 29213 / MRSA, strain MRSA 30
  MIC: 0.125 µg/mL (≈ 0.242 µM)
ATCC 29213 / MRSA, strain MRSA 31
  MIC: 0.25 µg/mL (≈ 0.484 µM)
ATCC 29213 / MRSA, strain MRSA 32
  MIC: 0.5 µg/mL (≈ 0.968 µM)
ATCC 29213 / MRSA, strain MRSA 33
  MIC: 0.5 µg/mL (≈ 0.968 µM)
ATCC 29213 / MRSA, strain MRSA 34
  MIC: 0.25 µg/mL (≈ 0.484 µM)
ATCC 29213 / MRSA, strain MRSA 35
  MIC: 16 µg/mL (≈ 31 µM)
ATCC 29213 / MRSA, strain MRSA 36
  MIC: 8 µg/mL (≈ 15.5 µM)
ATCC 29213 / MRSA, strain MRSA 37
  MIC: 0.5 µg/mL (≈ 0.968 µM)
ATCC 29213 / MRSA, strain MRSA 38
  MIC: 8 µg/mL (≈ 15.5 µM)
ATCC 29213 / MRSA, strain MRSA 39
  MIC: 8 µg/mL (≈ 15.5 µM)
ATCC 29213 / MRSA, strain MRSA 40
  MIC: 0.125 µg/mL (≈ 0.242 µM)
ATCC 29213 / MRSA, strain MRSA 41
  MIC: > 16 µg/mL
ATCC 29213 / MRSA, strain MRSA 42
  MIC: 0.25 µg/mL (≈ 0.484 µM)
ATCC 29213 / MRSA, strain MRSA 43
  MIC: 0.125 µg/mL (≈ 0.242 µM)
ATCC 29213 / MRSA, strain MRSA 44
  MIC: 4 µg/mL (≈ 7.74 µM)
ATCC 29213 / MRSA, strain MRSA 45
  MIC: 0.06 µg/mL (≈ 0.116 µM)
ATCC 29213 / MRSA, strain MRSA 46
  MIC: 0.06 µg/mL (≈ 0.116 µM)
ATCC 29213 / MRSA, strain MRSA 47
  MIC: 0.06 µg/mL (≈ 0.116 µM)
ATCC 29213 / MRSA, strain MRSA 48
  MIC: 2 µg/mL (≈ 3.87 µM)
ATCC 29213 / MRSA, strain MRSA 49
  MIC: 0.25 µg/mL (≈ 0.484 µM)
ATCC 29213 / MRSA, strain MRSA 50
  MIC: 0.03 µg/mL (≈ 0.0581 µM)
ATCC 29213 / MRSA, strain MRSA 51
  MIC: 0.13 µg/mL (≈ 0.252 µM)
ATCC 29213 / MRSA, strain MRSA 52
  MIC: 0.06 µg/mL (≈ 0.116 µM)
ATCC 29213 / MRSA, strain MRSA 53
  MIC: 0.25 µg/mL (≈ 0.484 µM)
ATCC 29213 / MRSA, strain MRSA 54
  MIC: 0.125 µg/mL (≈ 0.242 µM)
ATCC 29213 / MRSA, strain MRSA 55
  MIC: 4 µg/mL (≈ 7.74 µM)
ATCC 29213 / MRSA, strain MRSA 56
  MIC: 0.06 µg/mL (≈ 0.116 µM)
ATCC 29213 / MRSA, strain MRSA 57
  MIC: 0.125 µg/mL (≈ 0.242 µM)
ATCC 29213 / MRSA, strain MRSA 58
  MIC: 4 µg/mL (≈ 7.74 µM)
ATCC 29213 / MRSA, strain MRSA 59
  MIC: 0.06 µg/mL (≈ 0.116 µM)
ATCC 29213 / MRSA, strain MRSA 60
  MIC: 8 µg/mL (≈ 15.5 µM)
ATCC 29213 / MRSA, strain MRSA 61
  MIC: 0.06 µg/mL (≈ 0.116 µM)
ATCC 29213 / MRSA, strain MRSA 62
  MIC: 0.06 µg/mL (≈ 0.116 µM)
ATCC 29213 / MRSA, strain MRSA 63
  MIC: 0.125 µg/mL (≈ 0.242 µM)
ATCC 29213 / MRSA, strain MRSA 64
  MIC: 0.25 µg/mL (≈ 0.484 µM)
ATCC 29213 / MRSA, strain MRSA 65
  MIC: 0.06 µg/mL (≈ 0.116 µM)
ATCC 29213 / MRSA, strain MRSA 66
  MIC: 0.06 µg/mL (≈ 0.116 µM)
ATCC 29213 / MRSA, strain MRSA 67
  MIC: 0.25 µg/mL (≈ 0.484 µM)
ATCC 29213 / MRSA, strain MRSA 68
  MIC: 0.125 µg/mL (≈ 0.242 µM)
ATCC 29213 / MRSA, strain MRSA 69
  MIC: 4 µg/mL (≈ 7.74 µM)
ATCC 29213 / MRSA, strain MRSA 70
  MIC: 8 µg/mL (≈ 15.5 µM)
ATCC 29213 / MRSA, strain MRSA 71
  MIC: 0.06 µg/mL (≈ 0.116 µM)
ATCC 29213 / MRSA, strain MRSA 72
  MIC: 16 µg/mL (≈ 31 µM)
ATCC 29213 / MRSA, strain MRSA 73
  MIC: 0.25 µg/mL (≈ 0.484 µM)
ATCC 29213 / MRSA, strain MRSA 74
  MIC: 0.25 µg/mL (≈ 0.484 µM)
ATCC 29213 / MRSA, strain MRSA 75
  MIC: 0.5 µg/mL (≈ 0.968 µM)
ATCC 29213 / MRSA, strain MRSA 76
  MIC: 0.25 µg/mL (≈ 0.484 µM)
ATCC 29213 / MRSA, strain MRSA 77
  MIC: 16 µg/mL (≈ 31 µM)
ATCC 29213 / MRSA, strain MRSA 78
  MIC: 0.125 µg/mL (≈ 0.242 µM)
ATCC 29213 / MRSA, strain MRSA 79
  MIC: 0.5 µg/mL (≈ 0.968 µM)
ATCC 29213 / MRSA, strain MRSA 80
  MIC: 0.125 µg/mL (≈ 0.242 µM)
ATCC 29213 / MRSA, strain MRSA 81
  MIC: 0.25 µg/mL (≈ 0.484 µM)
ATCC 29213 / MRSA, strain MRSA 82
  MIC: 8 µg/mL (≈ 15.5 µM)
ATCC 29213 / MRSA, strain MRSA 83
  MIC: 0.06 µg/mL (≈ 0.116 µM)
ATCC 29213 / MRSA, strain MRSA 84
  MIC: 8 µg/mL (≈ 15.5 µM)
ATCC 29213 / MRSA, strain MRSA 85
  MIC: 4 µg/mL (≈ 7.74 µM)
ATCC 29213 / MRSA, strain MRSA 86
  MIC: > 16 µg/mL
ATCC 29213 / MRSA, strain MRSA 87
  MIC: 0.125 µg/mL (≈ 0.242 µM)
ATCC 29213 / MRSA, strain MRSA 88
  MIC: 0.06 µg/mL (≈ 0.116 µM)
ATCC 29213 / MRSA, strain MRSA 89
  MIC: 0.06 µg/mL (≈ 0.116 µM)
ATCC 29213 / MRSA, strain MRSA 90
  MIC: 16 µg/mL (≈ 31 µM)
ATCC 29213 / MRSA, strain MRSA 91
  MIC: 0.25 µg/mL (≈ 0.484 µM)
ATCC 29213 / MRSA, strain MRSA 92
  MIC: 8 µg/mL (≈ 15.5 µM)
ATCC 29213 / MRSA, strain MRSA 93
  MIC: 0.02 µg/mL (≈ 0.0387 µM)
ATCC 29213 / MRSA, strain MRSA 94
  MIC: 0.125 µg/mL (≈ 0.242 µM)
ATCC 29213 / MRSA, strain MRSA 95
  MIC: 8 µg/mL (≈ 15.5 µM)
ATCC 29213 / MRSA, strain MRSA 96
  MIC: 0.125 µg/mL (≈ 0.242 µM)
ATCC 29213 / MRSA, strain MRSA 97
  MIC: 8 µg/mL (≈ 15.5 µM)
ATCC 29213 / MRSA, strain MRSA 98
  MIC: 0.06 µg/mL (≈ 0.116 µM)
ATCC 29213 / MRSA, strain MRSA 99
  MIC: 0.125 µg/mL (≈ 0.242 µM)
ATCC 29213 / MRSA, strain MRSA 100
  MIC: 0.125 µg/mL (≈ 0.242 µM)
ATCC 29213 / MRSA, strain MRSA 101
  MIC: 8 µg/mL (≈ 15.5 µM)
ATCC 29213 / MRSA, strain MRSA 102
  MIC: 0.06 µg/mL (≈ 0.116 µM)
ATCC 29213 / MRSA, strain MRSA 103
  MIC: 8 µg/mL (≈ 15.5 µM)
ATCC 29213 / MRSA, strain MRSA 104
  MIC: 0.25 µg/mL (≈ 0.484 µM)
ATCC 29213 / MRSA, strain MRSA 105
  MIC: 0.125 µg/mL (≈ 0.242 µM)
ATCC 29213 / MRSA, strain MRSA 106
  MIC: 0.125 µg/mL (≈ 0.242 µM)
ATCC 29213 / MRSA, strain MRSA 107
  MIC: 0.25 µg/mL (≈ 0.484 µM)
ATCC 29213 / MRSA, strain MRSA 108
  MIC: 4 µg/mL (≈ 7.74 µM)
ATCC 29213 / MRSA, strain MRSA 109
  MIC: 0.25 µg/mL (≈ 0.484 µM)
ATCC 29213 / MRSA, strain MRSA 110
  MIC: 0.06 µg/mL (≈ 0.116 µM)
ATCC 29213 / MRSA, strain MRSA 111
  MIC: 8 µg/mL (≈ 15.5 µM)
ATCC 29213 / MRSA, strain MRSA 112
  MIC: 0.06 µg/mL (≈ 0.116 µM)
ATCC 29213 / MRSA, strain MRSA 113
  MIC: 0.125 µg/mL (≈ 0.242 µM)
ATCC 29213 / MSSA, strain MSSA 01
  MIC: 4 µg/mL (≈ 7.74 µM)
ATCC 29213 / MSSA, strain MSSA 02
  MIC: 4 µg/mL (≈ 7.74 µM)
ATCC 29213 / NEWMAN, strain Newman
  MIC: 0.25 µg/mL (≈ 0.484 µM)
